Reference: patent US8343475B2, “Small cationic antimicrobial peptides” (priority 2006, dated 2013)
In brackets after ≈: the same amount, converted by molar mass. Residues, ends and D or L forms follow the SMILES beside them.

Assays:
Format in all cases: cell-based
[1] = test system: lab isolate of Candida albicans; conditions: lab isolate of
Procedure: (§1) Minimal inhibitory concentration (MIC) determination. The MIC of the peptides were measured using a modified broth microdilution method in Mueller Hinton (MH) medium (Wu M, Hancock R E W. 1999. Interaction of the cyclic antimicrobial cationic peptide bactenecin with the outer and cytoplasmic membrane. J Biol Chem 274, 29-35). Briefly, the peptides were dissolved and stored in glass vials. The assay was performed in sterile 96-well polypropylene microtitre plates were used. Serial dilutions of the peptides to be assayed were performed in 0.01% acetic acid (Fisher) containing 0.2% bovine serum albumin (Boehringer Mannheim GmbH) at 10× the desired final concentration. Ten microlitres of the 10× peptides were added to each well of a 96-well polypropylene plate containing 90 μl of MH media per well. Bacteria were added to the plate from an overnight culture at 2-7×10^5 colony forming units/ml and incubated over night at 37° C. The MIC was taken as the concentration at which no growth was observed.
(§2) Strains. For the killing assay a mini-Tn5-lux mutant in Pseudomonas aeruginosa H103 was used. The strain is called H1001 and contains a fliC::luxCDABE transcriptional fusion resulting in constitutive expression of luciferase. The bacterial strains used for the antimicrobial activity assays included Escherichia coli UB1005 (F-, nalA37, metB1), a wild-type Salmonella enterica ssp. typhimurium (S. typhimurium), wild-type Pseudomonas aeruginosa PAO1 strain H103, Enterococcus faecalis ATCC29212, Staphylococcus aureus ATCC25923, and a clinical isolate of Staphylococcus epidermidis obtained from Dr. D. Speert (Department of Medicine, University of British Columbia). Antifungal activity was tested using a lab isolate of Candida albicans obtained from Dr. B. Dill (Department of Microbiology and Immunology, University of British Columbia).

[2] = test system: Staphylococcus aureus ATCC25923; conditions: ATCC25923
Procedure: as §1, §2

Escherichia coli UB1005 = conditions: UB1005
Procedure: as §1, §2

[3] = test system: wild-type Salmonella enterica ssp. typhimurium
Procedure: as §1, §2

[4] = test system: clinical isolate of Staphylococcus epidermidis; conditions: clinical isolate of
Procedure: as §1, §2

[5] = test system: Enterococcus faecalis ATCC29212; conditions: ATCC29212
Procedure: as §1, §2

[6] = test system: Pseudomonas aeruginosa PAO1 strain H103; conditions: for MIC P. aerug / MIC: PAO1; for antimicrobial activity against P. aeruginosa PAO1 (in words): laboratory strain P. aeruginosa PAO1
Procedure: The biological activity of the peptides can be determined by standard methods known to those of skill in the art, such as “minimal inhibitory concentration (MIC)” assay described in the present examples, whereby the lowest concentration at which no change in OD is observed for a given period of time is recorded as MIC.
as §1, §2

[7] = test system: Pseudomonas aeruginosa strain H1001 fliC::luxCDABE; assay: Luminescence (lux) killing assay, peptides cleaved from cellulose support; parameters: key: − for minimal or no activity; + for weak activity; +/++ for intermediate activity; ++ strong activity; conditions: P. aeruginosa strain H1001, 4 hours incubation, luminescence as indicator
Procedure: Assay for the cleaved peptides from cellulose support. The peptides were cleaved from the dried membrane in an ammonia atmosphere overnight, resulting in free peptides with an amidated C-terminus. The free peptides contained two β-alanines at the C-terminus, in addition to being amidated due to the linker between the cellulose membrane and the peptide sequence. The peptide spots were punched out and transferred in a 96-well microtiter plate. Serial dilutions were carried out from the membrane spots. Four rows were filled with four controls including 2×Bac2A and 2× an unrelated peptide. The other eight rows were used for serial dilution steps of the peptide variants. An overnight culture of Pseudomonas aeruginosa strain H1001 was diluted 1:500 using either LB media or 100 mM Tris buffer pH 7.3, 20 mM glucose and was added to the wells (100 μl/well) containing the peptide spots. In all other wells 50 μl were added. The microtiter plate was incubated for 30 min at 37° C. to release the peptides from the membrane. Subsequently, a dilution series were performed and the plate was incubated at 37° C. The luminescence produced by the FMN dependent luciferase system were detected in a time dependent manner using a Tecan Spectra Fluor plus.
as §2
Peptide synthesis on cellulose is a very effective and inexpensive way to investigate many different peptide variants for one particular activity. However, one of the problems of this technique is the low peptide amount synthesized on the membrane, about 280 nmol per cm^2. An average peptide spot used for the experiments presented is about 0.3 cm^2. Therefore, an assay had to be developed that was sensitive enough to show activity with this amount of peptides. P. aeruginosa H1001 has a luciferase gene cassette incorporated into the bacterial chromosome in a gene fliC (involved in flagellar biosynthesis) that is constitutively expressed. It will thus produce light if FMN is present. When this strain is killed, e.g. by peptides, the amount of light produced will decrease due to a decrease in FMN levels in the killed cells. This action can thus be monitored by detecting luminescence in a microtiter plate luminescence reader over time. The volume and amount of cells per well were optimized for this assay. After screening, we were able to monitor the killing action with small amounts of the parent peptide Bac2A (2 μg/ml of free peptide).

| Compound | Antimicrobial activity [7] | other results |
| --- | --- | --- |
| CC[C@H](C)[C@H](NC(=O)[C@H](CCCNC(=N)N)NC(=O)[C@H](CC(C)C)NC(=O)[C@H](CCCNC(=N)N)NC(=O)[C@@H](N)CCC(N)=O)C(=O)N[C@@H](CCCNC(=N)N)C(=O)N[C@H](C(=O)N[C@@H](C)C(=O)N[C@H](C(=O)N[C@H](C(=O)N[C@@H](CCCNC(=N)N)C(=O)N[C@@H](C)C(N)=O)[C@@H](C)CC)C(C)C)C(C)C [HH1, QRLRIRVAVIRA] (H-QRLRIRVAVIRA-NH2) |  | MIC C. albicans [1]: 25 µg/mL (≈ 17.2 µM); MIC S. aureus [2]: 50 µg/mL (≈ 34.5 µM); MIC E. coli (Escherichia coli UB1005): 6 µg/mL (≈ 4.14 µM); MIC S. typhi [3]: 25 µg/mL (≈ 17.2 µM); MIC S. epi. [4]: 12 µg/mL (≈ 8.28 µM); MIC E. faecalis [5]: 50 µg/mL (≈ 34.5 µM); MIC P. aerug [6]: 50 µg/mL (≈ 34.5 µM) |
| CC[C@H](C)[C@H](NC(=O)[C@H](CCCNC(=N)N)NC(=O)[C@H](CC(C)C)NC(=O)[C@H](CCC(N)=O)NC(=O)[C@@H](N)C(C)C)C(=O)N[C@@H](CCCNC(=N)N)C(=O)N[C@H](C(=O)N[C@@H](C)C(=O)N[C@H](C(=O)N[C@H](C(=O)N[C@@H](CCCNC(=N)N)C(=O)N[C@@H](C)C(N)=O)[C@@H](C)CC)C(C)C)C(C)C [HH2, VQLRIRVAVIRA] (H-VQLRIRVAVIRA-NH2) |  | MIC C. albicans [1]: 25 µg/mL (≈ 17.9 µM); MIC S. aureus [2]: 50 µg/mL (≈ 35.9 µM); MIC E. coli (Escherichia coli UB1005): 6 µg/mL (≈ 4.31 µM); MIC S. typhi [3]: 12 µg/mL (≈ 8.62 µM); MIC S. epi. [4]: 12 µg/mL (≈ 8.62 µM); MIC E. faecalis [5]: 50 µg/mL (≈ 35.9 µM); MIC P. aerug [6]: >50 µg/mL |
| CC[C@H](C)[C@H](NC(=O)[C@H](CCCNC(=N)N)NC(=O)[C@H](Cc1ccccc1)NC(=O)[C@H](CCCNC(=N)N)NC(=O)[C@@H](N)C(C)C)C(=O)N[C@@H](CCCNC(=N)N)C(=O)N[C@H](C(=O)N[C@@H](C)C(=O)N[C@H](C(=O)N[C@H](C(=O)N[C@@H](CCCNC(=N)N)C(=O)N[C@@H](C)C(N)=O)[C@@H](C)CC)C(C)C)C(C)C [HH3, VRFRIRVAVIRA] (H-VRFRIRVAVIRA-NH2) |  | MIC C. albicans [1]: 6 µg/mL (≈ 4.12 µM); MIC S. aureus [2]: 12 µg/mL (≈ 8.25 µM); MIC E. coli (Escherichia coli UB1005): 1.6 µg/mL (≈ 1.1 µM); MIC S. typhi [3]: 6 µg/mL (≈ 4.12 µM); MIC S. epi. [4]: 1.6 µg/mL (≈ 1.1 µM); MIC E. faecalis [5]: 25 µg/mL (≈ 17.2 µM); MIC P. aerug [6]: 6 µg/mL (≈ 4.12 µM) |
| CC[C@H](C)[C@H](NC(=O)[C@H](CCCNC(=N)N)NC(=O)[C@H](Cc1c[nH]c2ccccc12)NC(=O)[C@H](CCCNC(=N)N)NC(=O)[C@@H](N)C(C)C)C(=O)N[C@@H](CCCNC(=N)N)C(=O)N[C@H](C(=O)N[C@@H](C)C(=O)N[C@H](C(=O)N[C@H](C(=O)N[C@@H](CCCNC(=N)N)C(=O)N[C@@H](C)C(N)=O)[C@@H](C)CC)C(C)C)C(C)C [HH4, VRWRIRVAVIRA] (H-VRWRIRVAVIRA-NH2) |  | MIC C. albicans [1]: 12 µg/mL (≈ 8.03 µM); MIC S. aureus [2]: 12 µg/mL (≈ 8.03 µM); MIC E. coli (Escherichia coli UB1005): 1.6 µg/mL (≈ 1.07 µM); MIC S. typhi [3]: 6 µg/mL (≈ 4.02 µM); MIC S. epi. [4]: 1.6 µg/mL (≈ 1.07 µM); MIC E. faecalis [5]: 12 µg/mL (≈ 8.03 µM); MIC P. aerug [6]: 6 µg/mL (≈ 4.02 µM) |
| CC[C@H](C)[C@H](NC(=O)[C@H](CCC(N)=O)NC(=O)[C@H](CCCNC(=N)N)NC(=O)[C@H](CCCNC(=N)N)NC(=O)CNC(=O)[C@@H](N)CCCNC(=N)N)C(=O)NCC(=O)N[C@@H](CCCCN)C(=O)N[C@@H](Cc1ccccc1)C(N)=O [HHC189, RGRRQIGKF] (H-RGRRQIGKF-NH2; N-terminus assumed) |  | MIC [6]: 379 µM (≈ 423 µg/mL); antimicrobial activity against P. aeruginosa PAO1 (in words) [6]: did not posses any antimicrobial activity |
| CC(C)[C@H](NC(=O)CNC(=O)[C@@H](NC(=O)[C@H](CCCNC(=N)N)NC(=O)[C@H](CCCCN)NC(=O)[C@H](CO)NC(=O)[C@H](C)N)C(C)C)C(=O)N[C@@H](CCCNC(=N)N)C(=O)N[C@@H](CC(N)=O)C(N)=O [HHC190, ASKRVGVRN] (H-ASKRVGVRN-NH2; N-terminus assumed) |  | MIC [6]: 413 µM (≈ 407 µg/mL); antimicrobial activity against P. aeruginosa PAO1 (in words) [6]: did not posses any antimicrobial activity |
| KFFKFKK [HH1009] | − |  |
| KFHWWIWRK [HH988] | ++ |  |
| KFHWWKWRK [HH989] | ++ |  |
| KFKFFKFRK [HH992] | + |  |
| KFKFFKYRK [HH991] | + |  |
| KFKWWKYRK [HH990] | ++ |  |
| KFPWWPWRR [HH976] | + |  |
| KFRWWKWRR [HH985] | ++ |  |
| KFRWWPWRR [HH984] | ++ |  |
| KKKWWKWRR [HH987] | ++ |  |
| KKPWWPWRR [HH977] | + |  |
| KWPKWPWRR [HH979] | + |  |
| KWPWKPWRR [HH980] | + |  |
| KWPWWKWRR [HH981] | ++ |  |
| KWPWWPKRR [HH982] | + |  |

| Compound | Antimicrobial activity [7] | other results |
| --- | --- | --- |
| KWPWWPWRK [HH975] | + |  |
| KWPWWPWRR [HH983] | +/++ |  |
| KWRWWKKRR [HH986] | ++ |  |
| KWRWWPWRR [HH978] | ++ |  |
| KWWKWKK [HH1008] | + |  |
| KWWPWRR [HH994] | + |  |
| PKWPWRR [HH997] | − |  |
| PWKPWRR [HH998] | − |  |
| PWWKWRR [HH995] | +/++ |  |
| PWWKWRR [HH999] | + |  |
| PWWPKRR [HH1000] | − |  |
| PWWPWRK [HH1001] | − |  |
| PWWPWRR [HH993] | + |  |
| RFFKFRR [HH1007] | − |  |
| RFWKWRR [HH1004] | + |  |
| RWWIKRR [HH1005] | +/++ |  |
| RWWIYRR [HH1006] | + |  |
| RWWKWRK [HH1003] | +/++ |  |
| RWWKWRR [HH1002] | ++ |  |
| RWWPWRR [HH996] | + |  |
